{
  "source": "ChEMBL document CHEMBL4680060",
  "about": "“Polybasic peptide-levofloxacin conjugates potentiate fluoroquinolones and other classes of antibiotics against multidrug-resistant Gram-negative bacteria” (Medchemcomm, 2019)",
  "key": {"[1]": {"tested_on": "Pseudomonas aeruginosa", "test": "Synergistic antibacterial activity against wild type Pseudomonas aeruginosa PAO1 assessed as fractional inhibitory concentration index in presence of moxifloxacin by Checkerboard assay", "type": "functional"}, "[2]": {"tested_on": "Pseudomonas aeruginosa", "test": "Potentiation of minocycline-induced antibacterial activity against wild type Pseudomonas aeruginosa PAO1 measured after 18 hrs by CLSI protocol based microbroth dilution method", "type": "functional, organism-based"}, "[3]": {"tested_on": "Pseudomonas aeruginosa", "test": "Synergistic antibacterial activity against multidrug resistant Pseudomonas aeruginosa PA264 in presence of ciprofloxacin by Checkerboard assay", "type": "functional, organism-based"}, "[4]": {"tested_on": "Escherichia coli", "test": "Antibacterial activity against Escherichia coli ATCC 25922 assessed as inhibition of visible growth incubated for 18 hrs by CLSI protocol based microbroth dilution method", "type": "functional"}, "[5]": {"tested_on": "Pseudomonas aeruginosa", "test": "Synergistic antibacterial activity against multidrug resistant Pseudomonas aeruginosa PA260 in presence of ciprofloxacin by Checkerboard assay", "type": "functional, organism-based"}, "[6]": {"tested_on": "Pseudomonas aeruginosa", "test": "Additive antibacterial activity against MexAB-OprM, MexCD-OprJ, MexEF-OprN, MexJK and MexXY efflux pumps deficient Pseudomonas aeruginosa PAO750 in presence of ciprofloxacin by Checkerboard assay", "type": "functional, organism-based"}, "[7]": {"tested_on": "Acinetobacter baumannii", "test": "Synergistic antibacterial activity against Acinetobacter baumannii ATCC 17978 in presence of moxifloxacin by Checkerboard assay", "type": "functional, organism-based"}, "[8]": {"tested_on": "Staphylococcus aureus", "test": "Antibacterial activity against methicillin-resistant Staphylococcus aureus ATCC 33592 assessed as inhibition of visible growth incubated for 18 hrs by CLSI protocol based microbroth dilution method", "type": "functional"}, "[9]": {"tested_on": "Pseudomonas aeruginosa", "test": "Potentiation of trimethoprim-induced antibacterial activity against wild type Pseudomonas aeruginosa PAO1 measured after 18 hrs by CLSI protocol based microbroth dilution method", "type": "functional, organism-based"}, "[10]": {"tested_on": "Stenotrophomonas maltophilia", "test": "Antibacterial activity against Stenotrophomonas maltophilia clinical isolate CAN-ICU 62584 assessed as inhibition of visible growth incubated for 18 hrs by CLSI protocol based microbroth dilution method", "type": "functional"}, "[11]": {"tested_on": "Pseudomonas aeruginosa", "test": "Synergistic antibacterial activity against wild type Pseudomonas aeruginosa PAO1 in presence of moxifloxacin by Checkerboard assay", "type": "functional, organism-based"}, "[12]": {"test": "Hemolytic activity in pig erythrocyte at 512 ug/ml incubated for 1 hr by microplate reader assay relative to control", "type": "ADME, cell-based, Sus scrofa", "conditions": "pig erythrocytes, at 512 µg/mL, read-out: Activity"}, "[13]": {"tested_on": "Pseudomonas aeruginosa", "test": "Synergistic antibacterial activity against multidrug resistant Pseudomonas aeruginosa PA260 in presence of levofloxacin by Checkerboard assay", "type": "functional, organism-based"}, "[14]": {"tested_on": "Pseudomonas aeruginosa", "test": "Potentiation of moxifloxacin-induced antibacterial activity against wild type Pseudomonas aeruginosa PAO1 assessed as moxifloxacin MIC measured after 18 hrs by CLSI protocol based microbroth dilution method (reference value: 1 ug/ml)", "type": "functional"}, "[15]": {"tested_on": "Enterobacter cloacae", "test": "Antibacterial activity against Enterobacter cloacae 117029 assessed as inhibition of visible growth incubated for 18 hrs by CLSI protocol based microbroth dilution method", "type": "functional"}, "[16]": {"tested_on": "Escherichia coli", "test": "Synergistic antibacterial activity against Escherichia coli ATCC 25922 in presence of levofloxacin by Checkerboard assay", "type": "functional, organism-based"}, "[17]": {"tested_on": "Escherichia coli", "test": "Additive antibacterial activity against Escherichia coli ATCC 25922 in presence of ciprofloxacin by Checkerboard assay", "type": "functional, organism-based"}, "[18]": {"tested_on": "Escherichia coli", "test": "Synergistic antibacterial activity against Escherichia coli 107115 in presence of moxifloxacin by Checkerboard assay", "type": "functional, organism-based"}, "[19]": {"tested_on": "Klebsiella pneumoniae", "test": "Synergistic antibacterial activity against Klebsiella pneumoniae 116381 in presence of levofloxacin by Checkerboard assay", "type": "functional, organism-based"}, "[20]": {"tested_on": "Pseudomonas aeruginosa", "test": "Synergistic antibacterial activity against multidrug resistant Pseudomonas aeruginosa PA101885 in presence of ciprofloxacin by Checkerboard assay", "type": "functional, organism-based"}, "[21]": {"tested_on": "Pseudomonas aeruginosa", "test": "Synergistic antibacterial activity against multidrug resistant Pseudomonas aeruginosa PA262 in presence of moxifloxacin by Checkerboard assay", "type": "functional, organism-based"}, "[22]": {"tested_on": "Pseudomonas aeruginosa", "test": "Potentiation of aztreonam-induced antibacterial activity against wild type Pseudomonas aeruginosa PAO1 measured after 18 hrs by CLSI protocol based microbroth dilution method", "type": "functional, organism-based"}, "[23]": {"tested_on": "Pseudomonas aeruginosa", "test": "Synergistic antibacterial activity against multidrug resistant Pseudomonas aeruginosa PA100036 in presence of ciprofloxacin by Checkerboard assay", "type": "functional, organism-based"}, "[24]": {"tested_on": "Escherichia coli", "test": "Additive antibacterial activity against Escherichia coli 94393 in presence of ciprofloxacin by Checkerboard assay", "type": "functional, organism-based"}, "[25]": {"tested_on": "Pseudomonas aeruginosa", "test": "Synergistic antibacterial activity against multidrug resistant Pseudomonas aeruginosa PA259 in presence of ciprofloxacin by Checkerboard assay", "type": "functional, organism-based"}, "[26]": {"tested_on": "Pseudomonas aeruginosa", "test": "Potentiation of ceftazidime-induced antibacterial activity against wild type Pseudomonas aeruginosa PAO1 measured after 18 hrs by CLSI protocol based microbroth dilution method", "type": "functional, organism-based"}, "[27]": {"tested_on": "Klebsiella pneumoniae", "test": "Antibacterial activity against Klebsiella pneumoniae 116381 assessed as inhibition of visible growth incubated for 18 hrs by CLSI protocol based microbroth dilution method", "type": "functional"}, "[28]": {"tested_on": "Pseudomonas aeruginosa", "test": "Potentiation of levofloxacin-induced antibacterial activity against wild type Pseudomonas aeruginosa PAO1 assessed as […] measured after 18 hrs by CLSI protocol based microbroth dilution method relative to levofloxacin MIC", "type": "functional"}, "[29]": {"tested_on": "Pseudomonas aeruginosa", "test": "Synergistic antibacterial activity against multidrug resistant Pseudomonas aeruginosa PA260 in presence of moxifloxacin by Checkerboard assay", "type": "functional, organism-based"}, "[30]": {"tested_on": "Pseudomonas aeruginosa", "test": "Potentiation of ciprofloxacin-induced antibacterial activity against wild type Pseudomonas aeruginosa PAO1 assessed as fold reduction in ciprofloxacin MIC measured after 18 hrs by CLSI protocol based microbroth dilution method relative to ciprofloxacin MIC", "type": "functional"}, "[31]": {"tested_on": "Pseudomonas aeruginosa", "test": "Potentiation of pleuromutilin-induced antibacterial activity against wild type Pseudomonas aeruginosa PAO1 measured after 18 hrs by CLSI protocol based microbroth dilution method", "type": "functional, organism-based"}, "[32]": {"tested_on": "Pseudomonas aeruginosa", "test": "Synergistic antibacterial activity against multidrug resistant Pseudomonas aeruginosa PA101885 in presence of levofloxacin by Checkerboard assay", "type": "functional, organism-based"}, "[33]": {"tested_on": "Escherichia coli", "test": "Synergistic antibacterial activity against Escherichia coli ATCC 25922 in presence of moxifloxacin by Checkerboard assay", "type": "functional, organism-based"}, "[34]": {"tested_on": "Pseudomonas aeruginosa", "test": "Potentiation of fosfomycin-induced antibacterial activity against wild type Pseudomonas aeruginosa PAO1 measured after 18 hrs by CLSI protocol based microbroth dilution method", "type": "functional, organism-based"}, "[35]": {"tested_on": "Acinetobacter baumannii", "test": "Synergistic antibacterial activity against Acinetobacter baumannii ATCC 17978 in presence of ciprofloxacin by Checkerboard assay", "type": "functional, organism-based"}, "[36]": {"tested_on": "Pseudomonas aeruginosa", "test": "Potentiation of linezolid-induced antibacterial activity against wild type Pseudomonas aeruginosa PAO1 measured after 18 hrs by CLSI protocol based microbroth dilution method", "type": "functional, organism-based"}, "[37]": {"tested_on": "Pseudomonas aeruginosa", "test": "Synergistic antibacterial activity against wild type Pseudomonas aeruginosa PAO1 in presence of levofloxacin by Checkerboard assay", "type": "functional, organism-based"}, "[38]": {"tested_on": "Klebsiella pneumoniae", "test": "Synergistic antibacterial activity against Klebsiella pneumoniae 116381 in presence of moxifloxacin by Checkerboard assay", "type": "functional, organism-based"}, "[39]": {"tested_on": "Staphylococcus epidermidis", "test": "Antibacterial activity against methicillin-susceptible Staphylococcus epidermidis clinical isolate CANWARD-2008 81388 assessed as inhibition of visible growth incubated for 18 hrs by CLSI protocol based microbroth dilution method", "type": "functional"}, "[40]": {"tested_on": "Pseudomonas aeruginosa", "test": "Synergistic antibacterial activity against multidrug resistant Pseudomonas aeruginosa PA264 in presence of levofloxacin by Checkerboard assay", "type": "functional, organism-based"}, "[41]": {"tested_on": "Staphylococcus aureus", "test": "Antibacterial activity against methicillin-resistant Staphylococcus aureus clinical isolate CAN-ICU 61589 assessed as inhibition of visible growth incubated for 18 hrs by CLSI protocol based microbroth dilution method", "type": "functional"}, "[42]": {"tested_on": "Acinetobacter baumannii", "test": "Synergistic antibacterial activity against Acinetobacter baumannii ATCC 17978 in presence of levofloxacin by Checkerboard assay", "type": "functional, organism-based"}, "[43]": {"tested_on": "Pseudomonas aeruginosa", "test": "Potentiation of moxifloxacin-induced antibacterial activity against wild type Pseudomonas aeruginosa PAO1 assessed as […] measured after 18 hrs by CLSI protocol based microbroth dilution method relative to moxifloxacin MIC", "type": "functional"}},
  "note": "Activity calls are given as the source filed them. The calls are words filed in the database; no cut-off is given here.",
  "data": [
    {"smiles": "C[C@H]1COc2c(N3CCN(C)CC3)c(F)cc3c(=O)c(C(=O)NCCCCCCCCCCCC(=O)N[C@@H](CCN)C(=O)N[C@@H](CCN)C(N)=O)cn1c23", "values": [
      {"measurement": "fractional inhibitory concentration index (FICI)", "setting": "[1]", "result": 0.5},
      {"measurement": "Activity", "setting": "[2]", "result": "Active"},
      {"measurement": "Activity", "setting": "[3]", "result": "Active"},
      {"measurement": "MIC", "setting": "[4]", "result": 64, "unit": "µg/mL"},
      {"measurement": "Activity", "setting": "[5]", "result": "Active"},
      {"measurement": "Activity", "setting": "[6]", "result": "Active"},
      {"measurement": "Activity", "setting": "[7]", "result": "inactive"},
      {"measurement": "MIC", "setting": "[8]", "result": "> 128", "unit": "µg/mL"},
      {"measurement": "Activity", "setting": "[9]", "result": "Active"},
      {"measurement": "MIC", "setting": "[10]", "result": "> 128", "unit": "µg/mL"},
      {"measurement": "Activity", "setting": "[11]", "result": "Active"},
      {"measurement": "hemolysis at 1 h, 512 ug/ml", "setting": "[12]", "result": "< 1", "unit": "%"},
      {"measurement": "Activity", "setting": "[13]", "result": "Active"},
      {"measurement": "MIC", "setting": "[14]", "result": 0.25, "unit": "µg/mL"},
      {"measurement": "MIC", "setting": "[15]", "result": 128, "unit": "µg/mL"},
      {"measurement": "Activity", "setting": "[16]", "result": "Active"},
      {"measurement": "Activity", "setting": "[17]", "result": "Active"},
      {"measurement": "Activity", "setting": "[18]", "result": "Active"},
      {"measurement": "Activity", "setting": "[19]", "result": "Active"},
      {"measurement": "Activity", "setting": "[20]", "result": "Active"},
      {"measurement": "Activity", "setting": "[21]", "result": "Active"},
      {"measurement": "Activity", "setting": "[22]", "result": "inactive"},
      {"measurement": "Activity", "setting": "[23]", "result": "Active"},
      {"measurement": "Activity", "setting": "[24]", "result": "Active"},
      {"measurement": "Activity", "setting": "[25]", "result": "Active"},
      {"measurement": "Activity", "setting": "[26]", "result": "Active"},
      {"measurement": "MIC", "setting": "[27]", "result": "> 128", "unit": "µg/mL"},
      {"measurement": "Ratio", "setting": "[28]", "result": 4},
      {"measurement": "Activity", "setting": "[29]", "result": "Active"},
      {"measurement": "Ratio", "setting": "[30]", "result": 4},
      {"measurement": "Activity", "setting": "[31]", "result": "Active"},
      {"measurement": "Activity", "setting": "[32]", "result": "Active"},
      {"measurement": "Activity", "setting": "[33]", "result": "Active"},
      {"measurement": "Activity", "setting": "[34]", "result": "Active"},
      {"measurement": "Activity", "setting": "[35]", "result": "inactive"},
      {"measurement": "Activity", "setting": "[36]", "result": "Active"},
      {"measurement": "Activity", "setting": "[37]", "result": "Active"},
      {"measurement": "Activity", "setting": "[38]", "result": "Active"},
      {"measurement": "MIC", "setting": "[39]", "result": 64, "unit": "µg/mL"},
      {"measurement": "Activity", "setting": "[40]", "result": "Active"},
      {"measurement": "MIC", "setting": "[41]", "result": 128, "unit": "µg/mL"},
      {"measurement": "Activity", "setting": "[42]", "result": "inactive"},
      {"measurement": "Ratio", "setting": "[43]", "result": 4}
    ]}
  ]
}
